The test system of one data set is T47D xenograft tumor. As to the kind of experiment: T47D xenograft tumor growth in mice, intra-tumoral dosing. The data set is classed as in vivo, mouse. Here is the method:
Dip G inhibited growth of T47D xenograft tumor in vivo. Dip G was synthesized as described and formulated for the in vivo treatment. Dip G was prepared by dissolving the stock powder in 100% DMSO to a final concentration of 50 mg/ml. This stock solution was then diluted 1:5 into a 40% polyethylene glycol (PEG300)/40% normal saline (0.9% NaCl) solution to a final concentration of 20% Dip G solution. The maximum tolerated dose (MTD) of Dip G was determined to be 50 mg/kg by oral and 20 mg/kg by retro-orbital injection in mouse models. To determine MTD, escalating doses of Dip G dissolved in the aforementioned formulation were injected retro-orbitally or by oral gavage daily, five days out of seven to determine the MTD. […] (Data not shown.) Dip G was intra-tumorally delivered to ERα-positive T47D xenografted mice three times a week and the tumors were monitored for three weeks. […] Control-treated tumors were 70% of original size, while tumors (n=16) treated with Dip G were 46% of original size (FIG. 3). Under these treatment conditions, some Dip G-treated tumors completely regressed. […] (AST ELISAs are available commercially from several suppliers, including Abcam, Cambridge, Mass.)
Diptoindonesin G (Dip G) was obtained from the small molecule screening facility. Dip G was prepared by dissolving the stock powder in 100% DMSO to a final concentration of 50 mg/mL. This stock solution was then diluted 1:5 into a 40% polyethylene glycol (PEG 300)/40% normal saline (0.9% NaCl) solution to a final concentration of 20% Dip G solution. Vehicle was prepared identically, substituting DMSO instead of Dip G solution. PEG and saline were filtered at […] prior to use to ensure sterility.
Twelve Foxn1-nu homozygous mice were obtained from The Jackson Laboratory (Bar Harbor, Me.). Mice were randomized to control or active treatment prior to estrogen pellet placement. After allowing time for acclimatization, estrogen pellets were surgically inserted into the test mice, subcutaneously on the back. The skin at the site of surgery was prepared by washing with povidone iodine, allowing a three-minute contact time. Surgery was performed in a laminar flow hood while mice were under anesthesia. Incisions of less than 1 cm were made low in the back using a short scissors. Slow-release estrogen pellets (0.05 mg/60 day release) were implanted in each incision. Wounds were sealed with “VETBOND”®-brand surgical adhesive (3M Company, St. Paul, Minn.). At the same time, the mice were injected with 10^7 T-47D cells (ATCC HTB-133) twice, once in each mammary fat pad underneath the leg with 100 uL of fluid per injection site, using 25G needles.
Mice were monitored twice weekly for weight changes and tumor growth (measured in diameter and volume) with calipers. Following tumors reaching an appropriate size (˜5 mm in diameter, taking approximately 3 months after grafting), intra-tumoral injections were begun with vehicle containing 20 mg/kg of Dip G or control vehicle in a total volume of 50 μL split between tumors on each mammary fat pad. Three mice (6 tumors) received control injections and eight (16 tumors) received Dip G. Injections were administered 3 times per week with at least one day of rest between injections, for a total of 10-12 injections. Cohorts were sacrificed by cage individually in numerical order, beginning with the 10th injection and sacrificing one cage per injection for pharmacokinetic time points from that injection onward. In mice with very small tumors, dosing was switched from intra-tumoral to subcutaneous at later time points.

The target in the next data set is T1, CHIP ubiquitin E3 ligase (Homo sapiens, UniProt Q9UNE7).
T1 sequence (Q9UNE7 1-303): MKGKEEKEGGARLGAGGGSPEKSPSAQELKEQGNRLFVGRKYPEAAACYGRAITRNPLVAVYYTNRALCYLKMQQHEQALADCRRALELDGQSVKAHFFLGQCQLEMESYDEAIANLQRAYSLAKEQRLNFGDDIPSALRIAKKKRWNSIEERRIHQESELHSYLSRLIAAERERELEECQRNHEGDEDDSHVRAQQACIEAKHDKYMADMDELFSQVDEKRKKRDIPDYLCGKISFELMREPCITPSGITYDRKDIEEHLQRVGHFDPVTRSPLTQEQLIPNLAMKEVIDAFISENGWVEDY
Nature of the data set: Binding to CHIP ubiquitin E3 ligase.

A further data set relates to ERα. Nature of the data set: ERα transcriptional activity in MCF7 cells. The data set is classed as cell-based, human.
Data set [1] can be described thus: Maximum tolerated dose in mouse models. The following applies: in vivo, five days out of seven. The procedure:
Dip G was synthesized as described and formulated for the in vivo treatment. Dip G was prepared by dissolving the stock powder in 100% DMSO to a final concentration of 50 mg/ml. This stock solution was then diluted 1:5 into a 40% polyethylene glycol (PEG300)/40% normal saline (0.9% NaCl) solution to a final concentration of 20% Dip G solution. […] To determine MTD, escalating doses of Dip G dissolved in the aforementioned formulation were injected retro-orbitally or by oral gavage daily, five days out of seven to determine the MTD. […] (Data not shown.) Dip G was intra-tumorally delivered to ERα-positive T47D xenografted mice three times a week and the tumors were monitored for three weeks. […] (AST ELISAs are available commercially from several suppliers, including Abcam, Cambridge, Mass.)

The nature of data set [2]: Pharmacokinetics (plasma concentration by HPLC and LC/MS) in mice. Type of data set: in vivo. The following applies: mouse.
Data set [3] concerns mouse splenic lymphocytes (T cells). The following applies: concanavalin A induced proliferation of mouse splenic lymphocytes; cited from earlier work.
Another data set relates to wildtype ERα. Nature of the data set: ERE-Luciferase activity of wildtype ERα in T47D cells. Type of data set: cell-based, human. The following applies: co-treated with 10 nM E2, 10 μM, 24 hrs. The procedure:
FIG. 6 is a histogram depicting Dip G- and Dip G-D1-inhibited E2-dependent ERE-Luciferase activities of wildtype ERα or ERα Y537S in T47D cells. Cells were co-treated with 10 nM E2 and Dip G or Dip G-D1 (10 μM) for 24 hrs. The experiments were performed in triplicate. Data are represented as mean±SD, n=3.

Setting [4] is: individual tumor, 20 mg/kg intra-tumoral 3 times per week, 20 mg/kg.

Several values for one entry are separate records, joined by “and”; a condition that tells them apart may be missing. Identical values can stand only once.

For orientation: MTD means the largest dose that counted as tolerated. For orientation: half-life means the time needed for the level to fall by half in the phase considered. `O=C1c2c(O)cc(O)cc2-c2c(-c3ccc(O)cc3)oc3cc(O)cc1c23` [Dip G, diptoindonesin G]: the “tumor size as % of original size” value in the data set with T47D xenograft tumor (T47D xenograft, 20 mg/kg intra-tumoral 3 times per week, 21 days, n=16 tumors, control 70%) is on record as 46%. Moreover, the “responders (tumors decreasing by 50% or more)” value in the data set with T47D xenograft tumor (T47D xenograft, 12 of 16 tumors, control 17%, p=0.023) is given as 75%. For the same compound, the xenografted tumor growth result in the data set on T47D xenograft tumor (T47D xenograft, 21 days, versus vehicle-treated controls) was “strongly inhibited”. The “decrease in tumor volume” value with T47D xenograft tumor (T47D xenograft, at study completion, n=16 tumors, control 30%) is reported as 54%. In addition, in the data set on T47D xenograft tumor (setting [4]), the “Tumor Volumes, Day 3” value was 113.1 mm^3 and 29.8 mm^3 and 71.4 mm^3 and 25.7 mm^3 and 69.6 mm^3 and 17.2 mm^3 and 126.0 mm^3 and 79.8 mm^3 and 144.9 mm^3 and 40.7 mm^3 and 43.3 mm^3 and 70.7 mm^3 and 30.8 mm^3 and 15.1 mm^3 and 149.4 mm^3 and 68.9 mm^3; the “Tumor Volumes, Day 5” value is 100.0 mm^3 and 34.7 mm^3 (2×) and 36.0 mm^3 and 58.8 mm^3 (2×) and 23.1 mm^3 and 108.0 mm^3 and 84.7 mm^3 and 152.5 mm^3 and 51.6 mm^3 and 44.0 mm^3 and 36.1 mm^3 and 18.9 mm^3 and 111.6 mm^3 and 87.7 mm^3; the “Tumor Volumes, Day 8” value is 74.1 mm^3 and 20.0 mm^3 and 26.0 mm^3 and 14.5 mm^3 and 52.9 mm^3 and 14.0 mm^3 and 65.0 mm^3 and 55.0 mm^3 and 99.1 mm^3 and 32.8 mm^3 and 46.6 mm^3 and 55.2 mm^3 and 20.7 mm^3 and 21.8 mm^3 and 43.6 mm^3 and 40.3 mm^3; the “Tumor Volumes, Day 10” value was 106.2 mm^3 and 73.0 mm^3 and 39.2 mm^3 and 37.6 mm^3 and 64.8 mm^3 and 28.1 mm^3 and 105.6 mm^3 and 95.3 mm^3 and 123.0 mm^3 and 49.0 mm^3 and 56.1 mm^3 and 58.2 mm^3 and 32.9 mm^3 and 44.5 mm^3 and 63.6 mm^3 and 67.7 mm^3. In the data set on T47D xenograft tumor (setting [4]), the “Tumor Volumes, Day 12” value was 225.3 mm^3 and 33.6 mm^3 and 34.5 mm^3 and 18.5 mm^3 and 77.2 mm^3 and 13.9 mm^3 and 123.6 mm^3 and 0.5 mm^3 (2×) and 97.7 mm^3 and 48.7 mm^3 and 49.0 mm^3 and 63.6 mm^3 and 29.4 mm^3 and 23.1 mm^3 and 189.2 mm^3; the “Tumor Volumes, Day 15” value was 81.6 mm^3 and 41.6 mm^3 and 35.3 mm^3 and 32.0 mm^3 and 78.0 mm^3 and 19.7 mm^3 and 72.5 mm^3 and 37.0 mm^3 and 62.5 mm^3 and 22.9 mm^3 and 35.4 mm^3 and 53.0 mm^3 and 22.0 mm^3 and 20.1 mm^3 and 92.5 mm^3 and 49.6 mm^3; the “Tumor Volumes, Day 19” value was 91.9 mm^3 and 38.8 mm^3 and 12.0 mm^3 and 19.7 mm^3 and 45.6 mm^3 and 11.5 mm^3 and 58.8 mm^3 and 28.7 mm^3 and 90.9 mm^3 and 15.6 mm^3 and 24.6 mm^3 and 35.7 mm^3 (2×) and 14.9 mm^3 and 9.3 mm^3 and 58.2 mm^3; the “Tumor Volumes, Day 23” value is 0.5 mm^3 and 12.2 mm^3 and 9.1 mm^3 and 29.7 mm^3 and 81.5 mm^3 and 10.3 mm^3 and 51.9 mm^3 and 13.1 mm^3 and 7.9 mm^3 and 9.5 mm^3 and 28.1 mm^3 and 29.8 mm^3 and 18.5 mm^3 and 10.1 mm^3 and 34.2 mm^3 and 14.9 mm^3. The “Tumor Volumes, Day 0” value in the data set on T47D xenograft tumor (individual tumor, baseline, T47D xenograft) is 75.1 mm^3 and 40.3 mm^3 and 39.7 mm^3 and 71.3 mm^3 (2×) and 50.8 mm^3 and 25.4 mm^3 and 80.2 mm^3 (2×) and 96.2 mm^3 and 24.9 mm^3 and 70.2 mm^3 and 29.6 mm^3 and 23.1 mm^3 and 47.1 mm^3 and 52.9 mm^3. Further, the “binding to CHIP ubiquitin E3 ligase” value at CHIP ubiquitin E3 ligase was “binds”. Moreover, the ERα transcriptional activity result with ERα is on record as “decreases ERα transcriptional activity”. The MTD in data set [1] (oral gavage daily) is 50 mg/kg. For the same compound, in data set [1] (other: retro-orbital injection, retro-orbital injection daily), the MTD stood at 20 mg/kg. This compound also showed a half-life in data set [2] of 1 h. Further, in data set [3], the immunosuppressant activity entry is “immunosuppressant activity”. For the same compound, the “E2-dependent ERE-Luciferase activity of wildtype ERα” value in the data set on wildtype ERα was “inhibited”.

The values above are taken from patent US10508092B2, “Synthesis of novel analogs of diptoindonesin G, compounds formed thereby, and pharmaceutical compositions containing them” (Wisconsin Alumni Research Foundation, priority 2016, dated 2019).
